We go through 41 molecules from patent US20080293727A1, “Novel sulfonamide inhibitors of aspartyl protease” (priority 1992, published 2008).

For the test, the target named is HIV-1 protease (Human immunodeficiency virus type 1 group M subtype B, UniProt P04585). In words: Inhibition constants against HIV-1 protease (method of Pennington et al.). The settings on record: HIV-1 protease; read-out: Ki value. It is filed as biochemical. The text has this: We measured the inhibition constants of the compounds listed in Table VII against HIV-1 protease using the above-cited method of Pennington et al.

pKi: −log10 of the molar value.

As a reminder, the pKi is the Ki on a negative log10 scale, so that one unit is a factor of ten. For the molecule `COc1ccc(S(=O)(=O)N(C[C@@H](O)[C@H](Cc2ccccc2)NC(=O)O[C@H]2CCOC2)C2CCNCC2)cc1` [Compound 1011], the pKi was 5.82.

For `CCOC(=O)N[C@@H](Cc1ccccc1)[C@H](O)CN(CC(C)C)S(=O)(=O)c1ccc(NC(C)=O)cc1` [Compound 120], the pKi was 7.96.

For `C=C(C)CN(C[C@@H](O)[C@H](Cc1ccccc1)NC(=O)O[C@H]1CCOC1)S(=O)(=O)c1ccc(OC)cc1` [Compound 1006], the pKi was 8.10.

As to `CC(C)CN(C[C@@H](O)[C@H](Cc1ccccc1)NC(=O)OCc1ccccc1)S(=O)(=O)c1ccc(N)c([N+](=O)[O-])c1` [Compound 63], the pKi is 8.15.

Take `CCOC(=O)N[C@@H](Cc1ccccc1)[C@H](O)CN(CC1CCCC1)S(=O)(=O)c1ccc(F)cc1` [Compound 115, N-Cyclopentylmethyl-N-((3-ethoxycarbonylamino)-(2 syn,3S)-2-hydroxy-4-phenyl-butyl)-4-fluoro-benzenesulfonamide]: the pKi was 9.30.

For `COc1ccc(S(=O)(=O)N(C[C@@H](O)[C@H](Cc2ccccc2)NC(=O)O[C@H]2CCOC2)CC(C)(C)O)cc1` [Compound 1010], the negative logarithm of the Ki (pKi) is 7.70.

For the molecule `COc1ccc(S(=O)(=O)N(C[C@@H](O)[C@H](Cc2ccccc2)NC(=O)O[C@H]2CCOC2)CC(C)(C)CO)cc1` [Compound 1009], the pKi was 7.70.

For `COc1ccc(S(=O)(=O)N(CC(C)C)C[C@@H](O)[C@H](Cc2ccccc2)NC(=O)OCc2ccncc2)cc1` [Compound 163, N-((2 syn,3S)-2-Hydroxy-4-phenyl-3-(pyridin-4-yl-methoxycarbonylamino)-butyl)-N-isobutyl-4-methoxy-benzenesulfonamide], the negative logarithm of the Ki (pKi) was 9.30.

`CC(C)CN(C[C@@H](O)[C@H](Cc1ccccc1)NC(=O)OCc1cccnc1)S(=O)(=O)c1ccc2nonc2c1` [Compound 82]: the negative-log Ki (pKi) was 8.82.

On to `CC(=O)Nc1ccc(S(=O)(=O)N(CC(C)C)C[C@@H](O)[C@H](Cc2ccccc2)NC(=O)[C@@H]2CC(=O)NC(=O)N2)cc1` [Compound 40], for which the pKi is 5.96.

In the case of `CC(C)CN(C[C@@H](O)[C@H](Cc1ccccc1)NC(=O)O[C@H]1CCOC1)S(=O)(=O)N1CCCCC1` [Compound 150, Piperidine-1-sulfonic acid ((2 syn,3S)-2-hydroxy-4-phenyl-3-((S)-tetrahydrofuran-3-yloxycarbonylamino)-butyl)-isobutyl-amide], the pKi was 8.22.

Turning to `CC(C)CN(C[C@@H](O)[C@H](Cc1ccccc1)NC(=O)OCc1ccccc1)S(=O)(=O)c1ccc2nonc2c1` [Compound 65], the pKi was 9.15.

For `CC(=O)Nc1ccc(S(=O)(=O)N(CC(C)C)C[C@@H](O)[C@H](Cc2ccccc2)NC(=O)OCc2cccnc2)cc1` [Compound 44, N-(4-(((2 syn,3S)-2-Hydroxy-4-phenyl-3-(pyridin-3-yl-methoxycarbonylamino)-butyl)-isobutyl-sulfamoyl)-phenyl)-acetamide], the pKi was 8.30.

Regarding `CC(=O)Nc1ccc(S(=O)(=O)N(CC(C)C)C[C@@H](O)[C@H](Cc2ccccc2)NC(=O)OCCN2CCCC2=O)cc1` [Compound 30], the negative-log Ki (pKi) is 7.21.

As to `COc1ccc(S(=O)(=O)N(CC2CCCC2)C[C@@H](O)[C@H](Cc2ccccc2)NC(=O)OCc2ccccc2OC)cc1` [Compound 179], the pKi is 9.40.

With `C=C(C)COC(=O)N[C@@H](Cc1ccccc1)[C@H](O)CN(CC(C)C)S(=O)(=O)c1ccc(Cl)c(Cl)c1` [Compound 106], the pKi was 8.85.

In the case of `COc1ccc(S(=O)(=O)N(CC2CCCC2)C[C@@H](O)[C@H](Cc2ccccc2)NC(=O)O[C@@H]2CCN(C(=O)OC(C)(C)C)C2)cc1` [Compound 184], the pKi was 8.30.

Turning to `Cc1nc(C)c(S(=O)(=O)N(CC(C)C)C[C@@H](O)[C@H](Cc2ccccc2)NC(=O)OC(C)(C)C)s1` [Compound 46], the negative-log Ki (pKi) was 6.81.

Consider `COc1ccc(S(=O)(=O)N(CC(C)C)C[C@@H](O)[C@H](Cc2ccccc2)NC(=O)O[C@H]2CCOC2)cc1OC` [Compound 123], for which the pKi is 8.00.

For `CC(C)CN(C[C@@H](O)[C@H](Cc1ccccc1)NC(=O)[C@H](CC(N)=O)NC(=O)c1ccc2ccccc2n1)S(=O)(=O)c1cccc2nonc12` [Compound 20, (S)-N-1-(3-((Benzo(1,2,5)oxadiazole-4-sulfonyl)-isobutyl-amino)-(1S,2 syn)-1-benzyl-2-hydroxy-propyl)-2-((quinoline-2-carbonyl)-amino)-succinamide], the pKi was 10.00.

On to `CC(C)CN(C[C@@H](O)[C@H](Cc1ccccc1)NC(=O)OC(C)(C)C)S(=O)(=O)c1ccc(F)cc1` [Compound 32], for which the negative-log Ki (pKi) is 8.60.

Regarding `CC(=O)Nc1ccc(S(=O)(=O)N(CC(C)C)C[C@@H](O)[C@H](Cc2ccccc2)NC(=O)[C@H](CC(N)=O)NC(=O)c2ccc3ccccc3n2)cc1` [Compound 17, (S)-N-1-(1-(S)-Benzyl-3-((4-acetylamino-benzenesulfonyl)-isobutyl-amino)-2-(syn)-hydroxy-propyl)-2-((quinoline-2-carbonyl)-amino)-succinamide], the pKi was greater than 10.00.

Regarding `COc1ccc(S(=O)(=O)N(CC2CCCC2)C[C@@H](O)[C@H](Cc2ccccc2)NC(=O)OCc2cccnc2)cc1` [Compound 142], the negative logarithm of the Ki (pKi) is greater than 10.00.

Turning to `CC(=O)Nc1ccc(S(=O)(=O)N(CC(C)C)C[C@@H](O)[C@H](Cc2ccccc2)NC(=O)C(NC(N)=O)NC(N)=O)cc1` [Compound 67], the negative logarithm of the Ki (pKi) was 5.13.

For the molecule `CC(C)CN(C[C@@H](O)[C@H](Cc1ccccc1)NC(=O)O[C@H]1CCOC1)S(=O)(=O)c1ccc(Cl)c(Cl)c1` [Compound 37, 3,4-Dichloro-N-((2 syn,3S)-2-hydroxy-4-phenyl-3-((S)-tetrahydrofuran-3-yloxycarbonylamino)-butyl)-N-isobutyl-benzenesulfonamide], the pKi is 10.00.

In the case of `CC(=O)Nc1cccc(S(=O)(=O)N(CC(C)C)C[C@@H](O)[C@H](Cc2ccccc2)NC(=O)[C@H](CC(N)=O)NC(=O)c2ccc3ccccc3n2)c1` [Compound 19, (S)-N-1-(3-((3-Acetylamino-benzenesulfonyl)-isobutyl-amino)-(1S,2 syn)-1-benzyl-2-hydroxy-propyl)-2-((quinoline-2-carbonyl)-amino)-succinamide], the pKi is greater than 10.00.

With `CC(C)CN(C[C@@H](O)[C@H](Cc1ccccc1)NC(=O)O[C@H]1CCOC1)S(=O)(=O)c1cccc(Cl)c1` [Compound 138, 3-Chloro-N-((2 syn,3S)-2-hydroxy-4-phenyl-3-((S)-tetrahydrofuran-3-yloxycarbonylamino)-butyl)-N-isobutyl-benzenesulfonamide], the negative-log Ki (pKi) was 8.85.

On to `CC(C)CN(C[C@@H](O)[C@H](Cc1ccccc1)NC(=O)O[C@H]1CCOC1)S(=O)(=O)c1cccc(S(N)(=O)=O)c1` [Compound 112, Benzene-1,3-disulfonic acid 1-amide 3-((2 syn,3S)-2-hydroxy-4-phenyl-3-(3-(S)-tetrahydrofuran-3-yloxycarbonylamino)-butyl)-isobutyl-amide], for which the pKi was 8.40.

With `CC(=O)Nc1ccc(S(=O)(=O)N(C)C[C@@H](O)[C@H](Cc2ccccc2)NC(=O)OC(C)(C)C)cc1` [Compound 128], the negative-log Ki (pKi) was less than 5.30.

`CCC(C)C(NC(=O)OCc1ccccc1)C(=O)NC(Cc1ccccc1)C(O)CN(Cc1ccccc1)S(=O)(=O)Cc1ccccc1` (centres unmarked) [Compound 186]: the negative-log Ki (pKi) was 6.85.

In the case of `O=C(N[C@@H](Cc1ccccc1)[C@H](O)CN(Cc1ccco1)S(=O)(=O)c1ccc(F)cc1)O[C@H]1CCOC1` [Compound 136], the pKi was 7.74.

Regarding `Cc1ccc(S(=O)(=O)N(CC(C)C)C[C@@H](O)[C@H](Cc2ccccc2)NC(=O)O[C@H]2CCOC2)cc1` [Compound 165, N-((2 syn,3S)-2-Hydroxy-4-phenyl-3-((syn)-tetrahydrofuran-3-yloxycarbonylamino)-butyl)-N-isobutyl-4-methyl-benzenesulfonamide], the negative logarithm of the Ki (pKi) is 9.40.

`COc1ccc(S(=O)(=O)N(CC(C)C)C[C@@H](O)[C@H](Cc2ccccc2)NC(=O)O[C@H]2CCOC2)cc1` [Compound 100, N-((2 syn,3S)-2-Hydroxy-4-phenyl-3-((S)-tetrahydrofuran-3-yloxycarbonylamino)-butyl)-N-isobutyl-4-methoxy-benzenesulfonamide]: the pKi is 9.80.

Turning to `CC(C)CN(C[C@@H](O)[C@H](Cc1ccccc1)NC(=O)[C@H](CC(N)=O)NC(=O)c1ccc2ccccc2n1)S(=O)(=O)c1cc(S(=O)(=O)c2ccccc2)cs1` [Compound 13, (S)-N-1-(3-((4-Benzenesulfonyl-thiophene-2-sulfonyl)-isobutyl-amino)-(1S,2 syn)-1-benzyl-2-hydroxy-propyl)-2-((quinoline-2-carbonyl)-amino)-succinamide], the negative-log Ki (pKi) is 9.70.

As to `CC(C)(C)OC(=O)N[C@@H](Cc1ccccc1)[C@H](O)CN(CC1CC1)S(=O)(=O)c1ccc(F)cc1` [Compound 74], the pKi is 7.96.

As to `CC(=O)Nc1ccc(COC(=O)N[C@@H](Cc2ccccc2)[C@H](O)CN(CC(C)C)S(=O)(=O)c2ccc(NC(C)=O)cc2)cc1` [Compound 96], the pKi was 8.10.

`CCOC(=O)N[C@@H](Cc1ccccc1)[C@H](O)CN(CC(C)C)S(=O)(=O)c1ccc(Cl)c(Cl)c1` [Compound 119]: the pKi is 8.74.

Consider `O=C(N[C@@H](Cc1ccccc1)[C@H](O)CN(CC1CCCC1)S(=O)(=O)c1ccc2c(c1)CCO2)O[C@H]1CCOC1` [Compound 180], for which the negative logarithm of the Ki (pKi) was greater than 10.00.

In the case of `COc1ccc(S(=O)(=O)N(CC2CCCC2)C[C@@H](O)[C@H](CC2CCCCC2)NC(=O)O[C@H]2CCOC2)cc1` [Compound 195, N-((2 syn,3S)-4-Cyclohexyl-2-hydroxy-3-((S)-tetrahydrofuran-3-yloxycarbonylamino)-butyl)-N-cyclopentylmethyl-4-methoxy-benzenesulfonamide], the negative logarithm of the Ki (pKi) was 9.70.

Consider `CC(=O)Nc1nc(C)c(S(=O)(=O)N(Cc2ccccc2)C[C@@H](O)[C@H](Cc2ccccc2)NC(=O)[C@H](CC(N)=O)NC(=O)c2ccc3ccccc3n2)s1` [Compound 5], for which the pKi was 8.70.

`C=CCOC(=O)N[C@@H](Cc1ccccc1)[C@H](O)CN(CC(C)C)S(=O)(=O)c1ccc(NC(C)=O)cc1` [Compound 27]: the negative-log Ki (pKi) was 8.10.
